# Assay results as given in article PMC5564600 (Oncotarget, 2017).
# Columns and labels:
# Experiment in all cases: biochemical
# Type in all cases: binding
# panel of 442 kinases [1] = target: T1, panel of 442 kinases (Homo sapiens, UniProt Q9H0K1); conditions: kinase SIK2; for remaining activity at 1 µM: read-out: SIK2 (% of control at 1 µM)
# T1 construct: purchased Ambit Biosciences (scanMAXX KINOMEscan)
# panel of 442 kinases [2] = target: T2, panel of 442 kinases (Homo sapiens, UniProt P36897); conditions: kinase TGFBR1; for remaining activity at 1 µM: read-out: TGFBR1 (% of control at 1 µM)
# T2 construct: purchased Ambit Biosciences (scanMAXX KINOMEscan)
# T2 sequence (P36897 34-503): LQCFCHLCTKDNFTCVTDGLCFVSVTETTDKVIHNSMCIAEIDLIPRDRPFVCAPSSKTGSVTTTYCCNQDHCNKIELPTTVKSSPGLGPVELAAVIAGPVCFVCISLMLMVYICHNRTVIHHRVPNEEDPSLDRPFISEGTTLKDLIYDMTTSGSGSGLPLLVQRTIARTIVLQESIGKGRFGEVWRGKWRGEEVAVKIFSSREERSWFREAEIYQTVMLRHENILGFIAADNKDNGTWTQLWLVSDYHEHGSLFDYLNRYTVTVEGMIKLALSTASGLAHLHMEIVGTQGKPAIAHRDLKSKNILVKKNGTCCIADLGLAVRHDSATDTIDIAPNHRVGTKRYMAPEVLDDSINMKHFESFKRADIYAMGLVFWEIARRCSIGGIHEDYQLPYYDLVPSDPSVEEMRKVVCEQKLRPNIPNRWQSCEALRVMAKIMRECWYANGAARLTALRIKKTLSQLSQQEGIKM
# panel of 442 kinases [3] = target: T3, panel of 442 kinases (Homo sapiens, UniProt P07949); conditions: kinase RET; for remaining activity at 1 µM: read-out: RET (% of control at 1 µM)
# T3 construct: purchased Ambit Biosciences (scanMAXX KINOMEscan)
# T3 sequence (P07949 29-1114): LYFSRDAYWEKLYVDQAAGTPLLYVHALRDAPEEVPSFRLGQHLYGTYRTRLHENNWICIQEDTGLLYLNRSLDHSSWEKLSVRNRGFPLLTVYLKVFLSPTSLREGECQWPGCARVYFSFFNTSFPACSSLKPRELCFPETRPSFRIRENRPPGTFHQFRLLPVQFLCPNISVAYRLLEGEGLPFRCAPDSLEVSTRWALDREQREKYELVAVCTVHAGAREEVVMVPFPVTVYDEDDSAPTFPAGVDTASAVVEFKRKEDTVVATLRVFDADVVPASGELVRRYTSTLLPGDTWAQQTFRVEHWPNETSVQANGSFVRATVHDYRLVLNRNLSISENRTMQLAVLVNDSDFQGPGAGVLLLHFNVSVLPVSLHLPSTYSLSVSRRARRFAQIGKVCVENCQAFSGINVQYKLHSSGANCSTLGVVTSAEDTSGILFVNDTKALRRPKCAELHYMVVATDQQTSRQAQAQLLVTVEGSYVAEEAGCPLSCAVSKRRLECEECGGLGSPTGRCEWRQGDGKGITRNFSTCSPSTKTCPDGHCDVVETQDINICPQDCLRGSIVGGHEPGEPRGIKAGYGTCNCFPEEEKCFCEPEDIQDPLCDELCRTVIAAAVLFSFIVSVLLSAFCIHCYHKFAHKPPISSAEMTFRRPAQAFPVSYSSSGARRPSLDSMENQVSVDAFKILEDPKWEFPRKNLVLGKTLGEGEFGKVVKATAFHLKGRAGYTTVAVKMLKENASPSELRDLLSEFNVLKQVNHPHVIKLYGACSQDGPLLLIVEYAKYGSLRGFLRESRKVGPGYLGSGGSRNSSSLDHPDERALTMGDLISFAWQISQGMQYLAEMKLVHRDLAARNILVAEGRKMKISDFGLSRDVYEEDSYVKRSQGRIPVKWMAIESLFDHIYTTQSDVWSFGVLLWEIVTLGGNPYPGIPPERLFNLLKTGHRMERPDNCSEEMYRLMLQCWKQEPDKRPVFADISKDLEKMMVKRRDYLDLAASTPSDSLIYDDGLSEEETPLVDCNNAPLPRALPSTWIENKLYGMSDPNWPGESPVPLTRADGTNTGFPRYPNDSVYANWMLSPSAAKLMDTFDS
# panel of 442 kinases [4] = target: T4, panel of 442 kinases (Homo sapiens, UniProt Q15835); conditions: kinase GRK1; for remaining activity at 1 µM: read-out: % of control at 1 µM
# T4 construct: purchased Ambit Biosciences (scanMAXX KINOMEscan)
# T4 sequence (Q15835 1-563): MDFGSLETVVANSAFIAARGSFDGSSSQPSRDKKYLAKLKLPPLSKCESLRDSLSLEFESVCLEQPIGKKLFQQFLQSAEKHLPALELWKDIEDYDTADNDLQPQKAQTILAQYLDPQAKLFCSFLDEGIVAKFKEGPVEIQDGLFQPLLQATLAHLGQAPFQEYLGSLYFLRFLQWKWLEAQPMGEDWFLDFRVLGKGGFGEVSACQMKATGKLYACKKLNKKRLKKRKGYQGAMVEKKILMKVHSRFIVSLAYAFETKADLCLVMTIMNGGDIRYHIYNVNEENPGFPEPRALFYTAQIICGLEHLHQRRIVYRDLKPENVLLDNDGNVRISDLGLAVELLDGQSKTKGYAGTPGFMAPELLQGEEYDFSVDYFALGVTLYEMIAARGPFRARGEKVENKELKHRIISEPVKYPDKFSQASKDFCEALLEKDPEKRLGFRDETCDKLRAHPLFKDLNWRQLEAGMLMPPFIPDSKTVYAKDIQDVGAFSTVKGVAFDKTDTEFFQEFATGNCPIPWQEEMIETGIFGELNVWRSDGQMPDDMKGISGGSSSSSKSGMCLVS
# panel of 442 kinases [5] = target: T5, panel of 442 kinases (Homo sapiens, UniProt Q5S007); conditions: kinase LRRK2; for remaining activity at 1 µM: read-out: % of control at 1 µM
# T5 construct: purchased Ambit Biosciences (scanMAXX KINOMEscan)
# T5 sequence (Q5S007 whole entry): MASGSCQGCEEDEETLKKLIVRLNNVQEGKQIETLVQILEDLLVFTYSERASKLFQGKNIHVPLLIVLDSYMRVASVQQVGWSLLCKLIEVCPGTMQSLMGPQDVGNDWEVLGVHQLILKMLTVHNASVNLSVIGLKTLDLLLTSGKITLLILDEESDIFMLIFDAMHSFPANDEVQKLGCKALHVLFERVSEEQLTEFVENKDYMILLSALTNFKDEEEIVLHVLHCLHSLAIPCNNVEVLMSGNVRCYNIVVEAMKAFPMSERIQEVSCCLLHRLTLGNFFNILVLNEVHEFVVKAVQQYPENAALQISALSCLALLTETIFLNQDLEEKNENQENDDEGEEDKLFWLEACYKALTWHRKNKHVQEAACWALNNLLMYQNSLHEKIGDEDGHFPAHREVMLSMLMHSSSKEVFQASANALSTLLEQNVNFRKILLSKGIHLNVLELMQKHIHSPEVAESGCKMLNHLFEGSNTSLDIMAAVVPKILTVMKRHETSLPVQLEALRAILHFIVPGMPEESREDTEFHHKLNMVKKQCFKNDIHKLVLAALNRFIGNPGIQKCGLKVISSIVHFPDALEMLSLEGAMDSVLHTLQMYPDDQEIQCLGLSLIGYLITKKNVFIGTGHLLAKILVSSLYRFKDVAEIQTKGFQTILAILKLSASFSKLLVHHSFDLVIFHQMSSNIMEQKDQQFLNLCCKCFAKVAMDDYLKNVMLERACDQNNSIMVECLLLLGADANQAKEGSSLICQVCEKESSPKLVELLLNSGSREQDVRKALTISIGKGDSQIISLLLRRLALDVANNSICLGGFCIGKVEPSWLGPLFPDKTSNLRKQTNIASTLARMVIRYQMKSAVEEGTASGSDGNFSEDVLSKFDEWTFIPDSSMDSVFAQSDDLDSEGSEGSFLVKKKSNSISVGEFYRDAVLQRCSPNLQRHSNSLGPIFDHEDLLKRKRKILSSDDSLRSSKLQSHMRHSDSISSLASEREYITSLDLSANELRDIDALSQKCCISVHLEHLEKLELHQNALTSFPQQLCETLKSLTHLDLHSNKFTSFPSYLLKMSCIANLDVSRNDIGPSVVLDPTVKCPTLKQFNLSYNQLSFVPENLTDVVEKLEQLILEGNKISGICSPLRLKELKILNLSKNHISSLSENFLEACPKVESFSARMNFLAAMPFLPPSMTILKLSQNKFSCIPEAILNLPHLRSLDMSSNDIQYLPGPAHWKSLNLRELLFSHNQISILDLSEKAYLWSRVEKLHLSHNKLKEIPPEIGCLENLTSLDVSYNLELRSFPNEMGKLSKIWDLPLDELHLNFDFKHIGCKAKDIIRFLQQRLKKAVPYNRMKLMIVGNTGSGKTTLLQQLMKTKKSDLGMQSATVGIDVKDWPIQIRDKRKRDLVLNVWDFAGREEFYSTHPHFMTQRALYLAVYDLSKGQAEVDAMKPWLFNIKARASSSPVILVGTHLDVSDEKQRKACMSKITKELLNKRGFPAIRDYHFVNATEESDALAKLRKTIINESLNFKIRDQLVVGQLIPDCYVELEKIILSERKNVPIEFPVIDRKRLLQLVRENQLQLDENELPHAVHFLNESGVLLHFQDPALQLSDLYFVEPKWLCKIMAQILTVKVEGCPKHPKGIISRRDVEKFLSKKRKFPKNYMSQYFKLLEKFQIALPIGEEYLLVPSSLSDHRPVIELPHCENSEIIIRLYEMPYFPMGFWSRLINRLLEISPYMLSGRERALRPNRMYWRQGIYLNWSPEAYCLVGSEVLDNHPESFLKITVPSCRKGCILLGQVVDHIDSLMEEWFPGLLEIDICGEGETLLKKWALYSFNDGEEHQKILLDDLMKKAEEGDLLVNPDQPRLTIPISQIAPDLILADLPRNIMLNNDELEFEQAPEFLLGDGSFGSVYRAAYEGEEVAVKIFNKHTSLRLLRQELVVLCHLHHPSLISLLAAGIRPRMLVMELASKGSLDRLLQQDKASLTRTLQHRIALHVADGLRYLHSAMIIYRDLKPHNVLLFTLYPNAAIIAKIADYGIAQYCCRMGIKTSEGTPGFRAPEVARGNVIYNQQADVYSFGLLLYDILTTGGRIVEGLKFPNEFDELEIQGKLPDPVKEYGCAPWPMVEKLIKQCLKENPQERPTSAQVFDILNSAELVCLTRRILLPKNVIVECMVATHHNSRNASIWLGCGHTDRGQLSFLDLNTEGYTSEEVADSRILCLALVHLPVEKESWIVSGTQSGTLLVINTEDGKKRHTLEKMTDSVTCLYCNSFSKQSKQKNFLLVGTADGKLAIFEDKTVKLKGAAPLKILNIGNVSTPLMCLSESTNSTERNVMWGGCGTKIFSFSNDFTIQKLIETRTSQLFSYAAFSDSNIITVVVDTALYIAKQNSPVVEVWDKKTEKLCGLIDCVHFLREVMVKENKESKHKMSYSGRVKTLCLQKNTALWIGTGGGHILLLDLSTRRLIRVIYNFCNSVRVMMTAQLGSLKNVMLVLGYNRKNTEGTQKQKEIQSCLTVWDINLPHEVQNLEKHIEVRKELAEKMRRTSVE
# panel of 442 kinases [6] = target: T6, panel of 442 kinases (Homo sapiens, UniProt O94921); conditions: kinase PFTK1; for remaining activity at 1 µM: read-out: % of control at 1 µM
# T6 construct: purchased Ambit Biosciences (scanMAXX KINOMEscan)
# T6 sequence (O94921 whole entry): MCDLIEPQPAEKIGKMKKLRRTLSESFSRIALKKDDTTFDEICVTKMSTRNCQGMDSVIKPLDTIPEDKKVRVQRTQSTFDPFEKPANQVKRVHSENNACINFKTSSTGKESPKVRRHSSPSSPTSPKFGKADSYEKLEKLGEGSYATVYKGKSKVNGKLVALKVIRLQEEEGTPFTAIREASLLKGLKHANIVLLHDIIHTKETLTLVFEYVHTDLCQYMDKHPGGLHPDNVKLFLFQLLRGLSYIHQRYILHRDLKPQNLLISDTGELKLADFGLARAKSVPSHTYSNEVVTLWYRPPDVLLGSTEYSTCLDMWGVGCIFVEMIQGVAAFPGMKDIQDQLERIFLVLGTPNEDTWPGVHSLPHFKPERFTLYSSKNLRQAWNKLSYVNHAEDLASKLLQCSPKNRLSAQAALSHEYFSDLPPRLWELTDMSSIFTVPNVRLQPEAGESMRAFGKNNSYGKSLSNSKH
# panel of 442 kinases [7] = target: T7, panel of 442 kinases (Homo sapiens, UniProt Q9NY57); conditions: kinase YANK2; for remaining activity at 1 µM: read-out: YANK2 (% of control at 1 µM)
# T7 construct: purchased Ambit Biosciences (scanMAXX KINOMEscan)
# T7 sequence (Q9NY57 whole entry): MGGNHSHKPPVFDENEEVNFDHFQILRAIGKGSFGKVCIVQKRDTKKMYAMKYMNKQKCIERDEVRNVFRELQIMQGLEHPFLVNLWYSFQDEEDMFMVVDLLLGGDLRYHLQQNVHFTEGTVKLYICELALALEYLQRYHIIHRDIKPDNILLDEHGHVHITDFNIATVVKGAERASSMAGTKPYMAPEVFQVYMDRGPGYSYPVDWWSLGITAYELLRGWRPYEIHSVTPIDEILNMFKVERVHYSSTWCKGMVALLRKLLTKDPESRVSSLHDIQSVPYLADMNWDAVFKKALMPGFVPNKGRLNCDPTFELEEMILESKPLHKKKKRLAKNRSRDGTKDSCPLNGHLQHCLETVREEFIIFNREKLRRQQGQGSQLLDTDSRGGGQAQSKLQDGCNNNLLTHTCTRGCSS
# panel of 442 kinases [8] = target: T8, panel of 442 kinases (Homo sapiens, UniProt P08922); conditions: kinase ROS1; for remaining activity at 1 µM: read-out: ROS1 (% of control at 1 µM)
# T8 construct: purchased Ambit Biosciences (scanMAXX KINOMEscan)
# panel of 442 kinases [9] = target: T9, panel of 442 kinases (Homo sapiens, UniProt Q12866); conditions: kinase MERTK; for remaining activity at 1 µM: read-out: % of control at 1 µM
# T9 construct: purchased Ambit Biosciences (scanMAXX KINOMEscan)
# T9 sequence (Q12866 21-999): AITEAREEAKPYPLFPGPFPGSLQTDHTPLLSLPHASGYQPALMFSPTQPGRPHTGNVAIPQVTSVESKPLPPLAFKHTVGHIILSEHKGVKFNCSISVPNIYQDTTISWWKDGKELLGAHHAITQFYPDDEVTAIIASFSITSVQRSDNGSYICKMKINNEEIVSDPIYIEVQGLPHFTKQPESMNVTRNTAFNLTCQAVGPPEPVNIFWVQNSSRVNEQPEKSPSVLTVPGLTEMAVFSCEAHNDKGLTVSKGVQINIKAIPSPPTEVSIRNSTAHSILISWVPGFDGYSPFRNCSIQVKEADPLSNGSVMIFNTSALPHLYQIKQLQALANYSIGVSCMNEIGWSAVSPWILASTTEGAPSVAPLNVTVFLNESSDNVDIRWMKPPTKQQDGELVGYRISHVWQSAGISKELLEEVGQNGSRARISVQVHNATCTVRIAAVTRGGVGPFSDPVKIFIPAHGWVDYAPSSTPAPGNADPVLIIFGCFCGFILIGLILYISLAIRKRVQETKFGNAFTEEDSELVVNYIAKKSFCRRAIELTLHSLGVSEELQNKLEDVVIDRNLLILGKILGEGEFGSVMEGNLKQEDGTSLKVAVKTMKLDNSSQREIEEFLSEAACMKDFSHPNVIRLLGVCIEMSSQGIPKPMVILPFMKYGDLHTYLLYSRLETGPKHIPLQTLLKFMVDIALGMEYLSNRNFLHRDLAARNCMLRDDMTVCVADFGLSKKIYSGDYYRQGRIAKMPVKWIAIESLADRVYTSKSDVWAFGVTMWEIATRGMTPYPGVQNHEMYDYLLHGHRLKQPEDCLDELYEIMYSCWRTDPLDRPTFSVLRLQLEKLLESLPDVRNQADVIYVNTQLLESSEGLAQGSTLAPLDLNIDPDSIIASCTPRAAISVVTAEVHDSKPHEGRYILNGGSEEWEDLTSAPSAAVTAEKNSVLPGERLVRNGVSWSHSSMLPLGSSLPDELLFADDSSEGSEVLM
# [10] = 10 µM, read-out: % of control at 10 µM
smiles,measurement,setting,value
Nc1cc(C(F)(F)F)c(-c2cc(N3CCOCC3)nc(N3CCOCC3)n2)cn1 [Buparlisib],remaining activity at 1 µM,panel of 442 kinases [1],100%
same,remaining activity at 10 µM,"panel of 442 kinases [1]; 10 µM, read-out: SIK2 (% of control at 10 µM)",93%
same,remaining activity at 1 µM,panel of 442 kinases [2],100%
same,remaining activity at 10 µM,"panel of 442 kinases [2]; 10 µM, read-out: TGFBR1 (% of control at 10 µM)",100%
same,remaining activity at 1 µM,panel of 442 kinases [3],97%
same,remaining activity at 10 µM,"panel of 442 kinases [3]; 10 µM, read-out: RET (% of control at 10 µM)",100%
same,remaining activity at 1 µM,panel of 442 kinases [4],100%
same,remaining activity at 10 µM,panel of 442 kinases [4]; [10],100%
same,remaining activity at 1 µM,panel of 442 kinases [5],80%
same,remaining activity at 10 µM,panel of 442 kinases [5]; [10],100%
same,remaining activity at 1 µM,panel of 442 kinases [6],100%
same,remaining activity at 10 µM,panel of 442 kinases [6]; [10],97%
same,remaining activity at 1 µM,panel of 442 kinases [7],100%
same,remaining activity at 10 µM,"panel of 442 kinases [7]; 10 µM, read-out: YANK2 (% of control at 10 µM)",100%
same,remaining activity at 1 µM,panel of 442 kinases [8],84%
same,remaining activity at 10 µM,"panel of 442 kinases [8]; 10 µM, read-out: ROS1 (% of control at 10 µM)",79%
same,remaining activity at 1 µM,panel of 442 kinases [9],98%
same,remaining activity at 10 µM,panel of 442 kinases [9]; [10],95%
"Cn1c(=O)n(-c2ccc(C(C)(C)C#N)cc2)c2c3cc(-c4cnc5ccccc5c4)ccc3ncc21 [Dactolisib, 2-methyl-2-[4-(3-methyl-2-oxo-8-quinolin-3-yl-2,3-dihydroimidazo[4,5-c]quinolin-1-yl)-phenyl] propionitrile]",remaining activity at 1 µM,panel of 442 kinases [1],82%
same,remaining activity at 1 µM,panel of 442 kinases [2],89%
same,remaining activity at 1 µM,panel of 442 kinases [3],100%
same,remaining activity at 1 µM,panel of 442 kinases [4],100%
same,remaining activity at 1 µM,panel of 442 kinases [5],52%
same,remaining activity at 1 µM,panel of 442 kinases [6],98%
same,remaining activity at 1 µM,panel of 442 kinases [7],96%
same,remaining activity at 1 µM,panel of 442 kinases [8],100%
same,remaining activity at 1 µM,panel of 442 kinases [9],80%
COc1ncc(-c2ccc3nccc(-c4ccnnc4)c3c2)cc1NS(=O)(=O)c1ccc(F)cc1F [Omipalisib],remaining activity at 1 µM,panel of 442 kinases [1],100%
same,remaining activity at 1 µM,panel of 442 kinases [2],100%
same,remaining activity at 1 µM,panel of 442 kinases [3],94%
same,remaining activity at 1 µM,panel of 442 kinases [4],81%
same,remaining activity at 1 µM,panel of 442 kinases [5],96%
same,remaining activity at 1 µM,panel of 442 kinases [6],97%
same,remaining activity at 1 µM,panel of 442 kinases [7],100%
same,remaining activity at 1 µM,panel of 442 kinases [8],100%
same,remaining activity at 1 µM,panel of 442 kinases [9],100%
"FC(F)c1nc2ccccc2n1-c1nc(N2CCOCC2)nc(N2CCOCC2)n1 [ZSTK474, 2-(difluoromethyl)-1-[4,6-di(4-morpholinyl)-1,3,5-triazin-2-yl]-1H-benzimidazole]",remaining activity at 1 µM,panel of 442 kinases [1],78%
same,remaining activity at 1 µM,panel of 442 kinases [2],79%
same,remaining activity at 1 µM,panel of 442 kinases [3],100%
same,remaining activity at 1 µM,panel of 442 kinases [4],100%
same,remaining activity at 1 µM,panel of 442 kinases [5],100%
same,remaining activity at 1 µM,panel of 442 kinases [6],100%
same,remaining activity at 1 µM,panel of 442 kinases [7],100%
same,remaining activity at 1 µM,panel of 442 kinases [8],100%
same,remaining activity at 1 µM,panel of 442 kinases [9],84%
